Measured values as given in publication PMC8458285, “The Acinetobacter baumannii disinfectant resistance protein, AmvA, is a spermidine and spermine efflux pump” (Communications Biology, 2021).

How the values were obtained:
[1] = target: T1, AmvR (Acinetobacter baumannii, UniProt A0A0D5YGI2); assay: nanoDSF isothermal analysis (Kd at […] °C); weak, DSF shift only +[…] °C; type: binding
T1 construct: gene ABUW_1678; AmvR (amvR amplified from A. baumannii ATCC17978 genomic DNA) carrying a C-terminal hexahistidine tag; dimer in solution

[2] = target: T1, AmvR; assay: nanoDSF isothermal analysis (Kd at […] °C); DSF shift +[…] °C; type: binding
[3] = target: AmvR (Acinetobacter baumannii ATCC17978); assay: SEC; analytical SEC on Superdex 200 10/300 GL; elution volume compared with MW standards (HMW and LMW calibration sets)

Compound	Kd [2] [µM]	further results
NCCCCN [putrescine]	–	Kd [1]: 260 µM
NCCCCNCCCN [spermidine]	9.5	–
NCCCNCCCCNCCCN [spermine]	5.4	–
AmvR (natural protein)	–	stoichiometry N [3]: 2
